Values of other authors, collected in patent US3931141A, “Novel heptapeptides having gastrin activity” (Hoechst Aktiengesellschaft, priority 1972, dated 1976).

System: stomach
Conditions: The Lancet 1966, page 933

## Boc--β--Ala--Trp--Met--Asp--Phe--NH2 [formula IV]
  stimulating action (acid production and quantity secreted) compared with other synthetic peptides: strongest stimulating action
